biological target: EGFR (UniProt P00533); settings: not given
Sequence (P00533 whole entry, looked up): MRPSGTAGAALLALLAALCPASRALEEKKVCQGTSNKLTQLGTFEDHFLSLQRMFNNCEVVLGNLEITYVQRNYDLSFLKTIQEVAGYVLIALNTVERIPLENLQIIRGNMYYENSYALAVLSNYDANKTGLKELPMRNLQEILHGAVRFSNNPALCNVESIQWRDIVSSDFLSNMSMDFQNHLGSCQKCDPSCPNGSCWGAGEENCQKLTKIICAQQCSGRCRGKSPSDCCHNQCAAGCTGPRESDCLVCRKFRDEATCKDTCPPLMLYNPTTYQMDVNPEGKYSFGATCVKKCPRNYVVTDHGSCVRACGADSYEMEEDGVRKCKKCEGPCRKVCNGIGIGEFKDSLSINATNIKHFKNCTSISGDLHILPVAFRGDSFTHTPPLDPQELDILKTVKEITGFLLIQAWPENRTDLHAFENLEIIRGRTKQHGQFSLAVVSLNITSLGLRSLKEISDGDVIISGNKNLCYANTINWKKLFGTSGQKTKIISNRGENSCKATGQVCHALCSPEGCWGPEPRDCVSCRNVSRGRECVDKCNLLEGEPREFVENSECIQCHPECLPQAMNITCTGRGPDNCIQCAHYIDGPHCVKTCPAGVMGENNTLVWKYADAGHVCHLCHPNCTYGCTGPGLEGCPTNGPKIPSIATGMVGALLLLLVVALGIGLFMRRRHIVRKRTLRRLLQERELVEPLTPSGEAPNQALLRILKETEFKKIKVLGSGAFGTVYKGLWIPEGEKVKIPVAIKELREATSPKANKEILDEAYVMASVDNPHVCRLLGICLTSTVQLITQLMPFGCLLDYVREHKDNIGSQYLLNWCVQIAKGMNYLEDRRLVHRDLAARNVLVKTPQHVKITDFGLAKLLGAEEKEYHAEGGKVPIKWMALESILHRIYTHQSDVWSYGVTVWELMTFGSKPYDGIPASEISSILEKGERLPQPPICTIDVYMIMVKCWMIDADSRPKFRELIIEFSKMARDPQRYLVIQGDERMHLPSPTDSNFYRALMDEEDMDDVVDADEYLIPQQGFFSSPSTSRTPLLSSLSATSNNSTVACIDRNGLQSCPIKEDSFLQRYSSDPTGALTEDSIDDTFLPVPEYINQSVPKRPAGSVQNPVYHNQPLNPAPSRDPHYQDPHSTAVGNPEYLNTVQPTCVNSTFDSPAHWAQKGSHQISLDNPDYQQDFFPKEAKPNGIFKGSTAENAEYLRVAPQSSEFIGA

SMILES	IC50 [µM]
O=c1ccc2ccc(O)c(O)c2o1	7.67

same assay, conditions: concentration not given here

SMILES	inhibition [%]
O=c1ccc2ccc(O)c(O)c2o1	99.6
O=c1cc(O)c2ccccc2o1	0
O=c1ccc2ccc(O)cc2o1	0
O=c1ccc2cc(O)c(O)cc2o1	0
O=c1ccc2ccccc2o1	0
OC1C=Cc2ccccc2O1 (configuration not stated)	0

From the Kinase Knowledgebase extract (Sharma et al. 2016)
